Series [1] has as its system human platelet-rich plasma. Nature of the series: Platelet aggregation assay, Aggregation-Human PRP/ADP. The note with it: inhibition of ADP-induced aggregation of human platelet-rich plasma. Format: cell-based. Here is the method:
No. 2—The Platelet Aggregation Assay
In addition to the ELISA IIb-IIIa assay previously described the Aggregation-Human PRP/ADP Assay is useful for evaluating therapeutic compounds.
Platelet-rich plasma was prepared from healthy human volunteers for use in determining inhibition of platelet aggregation by the compounds. Blood was collected via a 21-gauge butterfly cannula, using a two-syringe technique into 1/10 volume of 3.8% trisodium citrate.
Platelet-rich plasma was prepared at room temperature by centrifugation of the citrated whole blood at 100×g for twelve minutes. The platelet rich plasma contained approximately 200-400,000 platelets/μl.
Platelet-poor plasma was prepared by centrifugation of citrated whole blood at 12,000×g for 2 minutes.
Platelet aggregation was assayed in a 4-channel platelet aggregatiob profiler (PAP-4, Biodata, Hatboro, Pa.) according to the manufacturers directions. Inhibition of platelet aggregation was studied by adding varying amounts of adenosine diphosphate (ADP) to stirred human platelet-rich plasma. Specifically, the human platelet-rich plasma was incubated with the compound being tested for 1 minute at 37° C. prior to the addition of a variety of aggregating agents most often ADP 5 μM, but also 1 μg/ml collagen, 1 μM U46619 and 0.3 μM platelet activating factor.

For a further series, the target named is T1, GPIIb-IIIa (Homo sapiens, UniProt P05106+P08514).
T1 construct: Purified platelet GPIIb-IIIa receptor was prepared as described by Fitzgerald; from tissue; host or cells: platelets
T1 sequence (P08514 32-887 limits assumed): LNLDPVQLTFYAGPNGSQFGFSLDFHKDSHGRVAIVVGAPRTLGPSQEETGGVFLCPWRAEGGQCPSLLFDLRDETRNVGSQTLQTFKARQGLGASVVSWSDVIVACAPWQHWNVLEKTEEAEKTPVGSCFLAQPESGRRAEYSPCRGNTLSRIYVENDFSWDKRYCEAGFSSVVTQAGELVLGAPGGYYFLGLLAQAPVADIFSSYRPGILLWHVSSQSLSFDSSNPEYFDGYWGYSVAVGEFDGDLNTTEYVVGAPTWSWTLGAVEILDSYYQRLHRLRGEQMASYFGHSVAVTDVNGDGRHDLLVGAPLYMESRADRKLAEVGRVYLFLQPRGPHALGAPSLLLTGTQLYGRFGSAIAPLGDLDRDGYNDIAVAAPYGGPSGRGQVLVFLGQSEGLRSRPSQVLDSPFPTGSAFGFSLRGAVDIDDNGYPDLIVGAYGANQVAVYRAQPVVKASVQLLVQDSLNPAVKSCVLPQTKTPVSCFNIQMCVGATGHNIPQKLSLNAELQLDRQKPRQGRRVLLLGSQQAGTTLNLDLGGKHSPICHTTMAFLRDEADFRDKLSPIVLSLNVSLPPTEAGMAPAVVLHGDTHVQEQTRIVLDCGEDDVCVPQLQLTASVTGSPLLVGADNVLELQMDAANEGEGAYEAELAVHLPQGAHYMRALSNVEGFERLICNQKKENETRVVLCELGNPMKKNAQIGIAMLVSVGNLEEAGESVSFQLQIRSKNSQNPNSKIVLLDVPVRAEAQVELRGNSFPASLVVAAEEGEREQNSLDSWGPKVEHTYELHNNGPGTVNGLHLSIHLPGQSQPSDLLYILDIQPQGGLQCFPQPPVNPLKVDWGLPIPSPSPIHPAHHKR
T1 sequence (P08514 891-1039 limits assumed): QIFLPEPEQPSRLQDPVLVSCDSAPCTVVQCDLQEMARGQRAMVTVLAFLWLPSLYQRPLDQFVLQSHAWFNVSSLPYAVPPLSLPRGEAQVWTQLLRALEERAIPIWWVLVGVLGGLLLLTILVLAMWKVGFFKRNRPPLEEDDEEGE
T1 sequence (P05106 27-788): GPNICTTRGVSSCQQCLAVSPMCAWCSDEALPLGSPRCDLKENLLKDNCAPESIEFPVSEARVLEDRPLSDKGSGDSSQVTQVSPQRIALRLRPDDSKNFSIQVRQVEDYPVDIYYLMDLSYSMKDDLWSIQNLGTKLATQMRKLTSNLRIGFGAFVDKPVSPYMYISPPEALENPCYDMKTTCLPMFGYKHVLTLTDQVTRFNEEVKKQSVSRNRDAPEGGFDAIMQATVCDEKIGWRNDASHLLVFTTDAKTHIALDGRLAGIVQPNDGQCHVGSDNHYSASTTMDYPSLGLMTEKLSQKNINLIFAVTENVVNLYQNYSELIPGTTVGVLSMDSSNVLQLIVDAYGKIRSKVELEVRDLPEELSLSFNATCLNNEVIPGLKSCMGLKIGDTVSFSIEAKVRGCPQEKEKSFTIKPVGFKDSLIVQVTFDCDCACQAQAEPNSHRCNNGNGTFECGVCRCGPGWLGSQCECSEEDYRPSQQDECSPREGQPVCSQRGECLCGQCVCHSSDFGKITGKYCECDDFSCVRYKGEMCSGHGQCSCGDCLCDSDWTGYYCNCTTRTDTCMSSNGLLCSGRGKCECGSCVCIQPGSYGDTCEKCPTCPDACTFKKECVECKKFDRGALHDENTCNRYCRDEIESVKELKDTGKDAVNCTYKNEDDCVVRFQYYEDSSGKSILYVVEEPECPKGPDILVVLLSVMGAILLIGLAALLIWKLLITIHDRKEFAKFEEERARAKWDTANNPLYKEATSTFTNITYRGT
Nature of the series: ELISA IIb-IIIa assay (fibrinogen binding to immobilized GPIIb-IIIa). The note with it: inhibition of biotinylated fibrinogen binding to plate-coated purified platelet GPIIb-IIIa receptor. The method, then:
No. 1—The ELISA IIb-IIIa Assay:
In the following assay, GPIIb-IIIa is prepared in purified form, by a method such as described by Fitzgerald, L. A., et al., Anal Biochem (1985) 151:169-177, (the disclosure of which is incorporated herein by reference). GPIIb-IIIa is coated onto microtiter plates. The coated support is then contacted with fibrinogen and with the test material (e.g., compounds of Formula I) and incubated for a sufficient time to permit maximal binding of fibrinogen to the immobilized GPIIb-IIIa. Fibrinogen is typically provided at a concentration of about 5-50 nM and the test material can, if desired, be added at a series of dilution. Typical incubations are 2 to 4 hours at 25° C., the time and temperature being interdependent.
After incubation, the solution containing the fibrinogen and test material is removed and the level of binding of fibrinogen measured by quantitating bound fibrinogen to GPIIb-IIIa. Any suitable means of detection may be used, but it is convenient to employ labeled fibrinogen, for example using biotinylated labels. Such methods are well known in the art.
A. Description of Assays—Plate Assays
Purified platelet GPIIb-IIIa receptor was prepared as described by Fitzgerald, L. A., et al., Anal Biochem (1985) 151:169-177 (1985). Vitronectin receptor was prepared as described by Smith, J. W., J. Biol Chem (1988) 263:18726-18731. After purification, the receptors were stored in 0.1% Triton X-100 at 0.1-1.0 mg/ml.
The receptors were coated to the wells of 96-well flat-bottom ELISA plates (Linbro EIA-Plus microtiter plate, Flow Laboratories) after diluting 1:200 with a solution of 20 mM Tris-HCl, 150 mM NaCl, 1 mM CaCl2, pH 7.4, to reduce the Triton X-100 concentration to below its critical micellar concentration and adding an aliquot of 100 ul to each well. The wells were all allowed to incubate overnight at 4° C., and then aspirated to dryness. Additional sites were blocked by the addition of bovine serum albumin (BSA) at 35 mg/ml in the above buffer for two hours at 30° C. to prevent nonspecific binding. The wells were then washed once with binding buffer ([…] Tris-HCl, 100 mM NaCl 2 mM CaCl2, 1 mg/ml BSA).
The corresponding ligands (fibrinogen, von Willebrand Factor, or vitronectin) were conjugated to biotin using commercially available reagents and standard protocols. The labeled ligands were added to the receptor-coated wells at final concentration of 10 nM (100 ul/well) and incubated for 3 hours at 25° C. in the presence or absence of the test samples. After incubation, the wells are aspirated to dryness and bound ligand is quantitated.
The bound protein is detected by the addition of antibiotin antibody conjugated to alkaline phosphatase followed by addition of substrate (p-nitrophenyl phosphate), and determination of the optical density of each well at […]. Decreased color development is observed in wells incubated with test samples which inhibit binding of ligand to receptor.

Structures can show the parent of a compound that is named as a salt.

On to `O=C(O)CC1CCC2(CC1)CCN(CCc1ccncc1)CC2` [Example 23, (3-(2-(Pyridin-4-yl)ethyl)-3-azaspiro[5.5]undec-9-yl)acetic Acid], for which, in series [1], the IC50 – broadly, the concentration that inhibits the measured activity by half – was over 100000 nM.
On the same count and under the same terms, with `O=C(O)CN1C(=O)CC2(CCN(CCc3ccncc3)CC2)CC1=O` [Example 26, (9-(2-(Pyridin-4-yl)ethyl)-2,4-dioxo-3,9-diazaspiro[5.5]undec-3-yl)acetic Acid Trifluoroacetate] the figure was over 100000 nM.
As to `N=C(N)c1ccc(C(=O)NC2CCC3(CC2)CN(CC(=O)O)C(=O)O3)cc1` (stereo not drawn) [Example 36, (8-(4-(Aminoiminomethyl)benzamido)-2-oxo-1-oxa-3-aza-spiro[4.5]dec-3-yl)acetic Acid], the melting point (commonly the temperature of the solid-liquid transition) was in the range of 280 to 284 °C. At GPIIb-IIIa, the IC50 worked out at 170 nM. This compound returned a half-maximal inhibitory concentration (IC50) in series [1] of 510 nM.
The compound `N=C(N)c1ccc(C(=O)N2CCC3(CC2)NC(=O)N(CCCC(=O)O)C3=O)cc1` [Example 21, Trifluoroacetate] gave a half-inhibitory concentration (IC50) in series [1] of over 10000 nM.
For `N=C(N)NCCCC(=O)N1CCC2(CC1)CN(CC(=O)O)C(=O)O2` [Example 37], the half-maximal inhibitory concentration (IC50) at GPIIb-IIIa amounted to 19000 nM; in series [1] it was 52000 nM.
For `N=C(N)c1ccc(C(=O)N2CCC3(CCN(CC(=O)O)C(=O)O3)CC2)cc1` [Example 33, (9-(4-(Aminoiminomethyl)benzoyl)-2-oxo-1-oxa-3,9-diaza-spiro[5.5]undec-3-yl)acetic Acid] the same measures were 16500 nM and 66000 nM.
The like results for `N=C(N)c1ccc(C(=O)N2CCC3(CCN(C(=O)CCCC(=O)O)CC3)CC2)cc1` [Example 42, 5-((3-(4-Aminoiminomethyl)benzoyl)-3,9-diaza-spiro[5.5]undec-9-yl)-5-oxopentanoic Acid] were, in that order, 3500 nM and 10000 nM.
`N=C(N)c1ccc(C2=NOC3(CCN(CCCC(=O)O)CC3)C2)cc1` [Example 8]: it took 320 nM to reach half-maximal inhibition in series [1] (IC50).
For the compound `N=C(N)c1ccc(C(=O)N2CCC3(CCN(C(=O)CCC(=O)O)CC3)CC2)cc1` [Example 41, 4-((3-(4-Aminoiminomethyl)benzoyl)-3,9-diaza-spiro[5.5]undec-9-25 yl)-4-oxobutanoic Acid], the IC50 on GPIIb-IIIa came out at 15000 nM; in series [1] it was 14000 nM.
For `N=C(N)c1ccc(C2=NOC3(CCN(CCCCC(=O)O)CC3)C2)cc1` [Example 19], half-maximal inhibition in series [1] (IC50) required 450 nM.
As for `N=C(N)c1ccc(C(=O)N2CCC3(CCC(CC(=O)O)CC3)CC2)cc1` [Example 2, (3-(4-(Aminoiminomethyl)benzoyl)-3-aza-spiro[5.5]undec-9-yl)acetic Acid Hydrochloride], the half-inhibitory concentration (IC50) turned out to be 8.2 nM on GPIIb-IIIa and 410 nM in series [1].
For `O=C(O)CC1CCC2(CC1)CCN(CCC1CCNCC1)CC2` [Example 25, (3-(2-(Piperidin-4-yl)ethyl)-3-azaspiro[5.5]undec-9-yl)acetic Acid], the half-maximal inhibitory concentration (IC50) in series [1] is over 10000 nM.
With `CCOC(=O)CC1CCC2(CC1)CCN(CCc1ccncc1)CC2` [Example 22, Ethyl (3-(2-(Pyridin-4-yl)ethyl)-3-azaspiro[5.5]undec-9-yl)acetate], in series [1], the IC50 was over 100000 nM.
`CCOC(=O)CCN1CCC2(CC1)CC(c1ccc(C(=N)N)cc1)=NO2` [Example 14, Hydrochloride] came in with an IC50 in series [1] of 640 nM.
Turning to `N=C(N)NCCCCC(=O)N1CCC2(CC1)CN(CC(=O)O)C(=O)O2` [Example 38], the IC50 at GPIIb-IIIa was 1850 nM; in series [1], 7000 nM.
In turn, `O=C(O)CN1CCC2(CCN(CCC3CCNCC3)CC2)CC1` [Example 27, (9-(2-(Piperidin-4-yl)ethyl)-3,9-diazaspiro[5.5]undec-3-yl)acetic Acid Tristrifluoroacetate] returned an IC50 in series [1] of 100000 nM.
In the case of `N=C(N)c1ccc(CC(=O)N2CCC3(CC2)CN(CC(=O)O)C(=O)O3)cc1` [Example 31, (8-(2-(4-Aminoiminomethyl)acetyl)-2-oxo-1-oxa-3,8-diaza-spiro[4.5]dec-3-yl)acetic Acid.], the IC50 at GPIIb-IIIa was found to be 74 nM; in series [1] it was 1110 nM.
Regarding `N=C(N)c1ccc(COC2CCC3(CC2)CN(CC(=O)O)C(=O)O3)cc1` (stereo not drawn) [Example 34, (8-(4-(Aminoiminomethyl)benzyloxy)-2-oxo-1-oxa-3-aza-spiro[4.5]dec-3-yl)acetic Acid], the IC50 was determined as 350 nM on GPIIb-IIIa and 1290 nM in series [1].
For the compound `N=C(N)NCCCCCC(=O)N1CCC2(CC1)CN(CC(=O)O)C(=O)O2` [Example 39], the IC50 worked out at 2700 nM at GPIIb-IIIa and 12000 nM in series [1].
As to `CCOC(=O)CCCN1CCC2(CC1)CC(c1ccc(C(=N)N)cc1)=NO2` [Example 7, Hydrochloride], in series [1], half-maximal inhibition (IC50) required 2800 nM.
On to `N=C(N)c1ccc(CC(=O)N2CCC3(CC2)CCN(CC(=O)O)C(=O)O3)cc1` [Example 32], for which the half-inhibitory concentration (IC50) at GPIIb-IIIa came to 200 nM; in series [1], 2130 nM.
`CCOC(=O)CCCC(=O)N1CCC2(CC1)CC(c1ccc(C(=N)N)cc1)=NO2` [Example 16, Ethyl 5-(3-(4-(Aminoiminomethyl)phenyl)-1-oxa-2,8-diaza-spiro[4.]dec-2-en-8-yl)-5-oxopentanoate Hydrochloride] had an IC50 in series [1] of 200 nM.
Turning to `CCOC(=O)CC1CCC2(CC1)CCN(C(=O)c1ccc(C(=N)N)cc1)CC2` [Example 1, Ethyl (3-(4-(Aminoiminomethyl)benzoyl)-3-aza-spiro[5.5]undec-9-yl)acetate Hydrochloride], the IC50 is over 10000 nM on GPIIb-IIIa and 100000 nM in series [1].
Regarding `N=C(N)c1ccc(N2CC3(CCN(CCCC(=O)O)CC3)OC2=O)cc1` [Example 4, 4-(3-(4-(Aminoiminomethyl)phenyl)-2-oxo-1-oxa-3,8-diaza-5 spiro[4.5]dec-8-yl)butanoic Acid Bistrifluoroacetate], the IC50 in series [1] was 3000 nM.
Still for that read-out and setting: with `CCOC(=O)CC1CCC2(CC1)CCN(CCC1CCNCC1)CC2` [Example 24, Ethyl (3-(2-(Piperidin-4-yl)ethyl)-3-azaspiro[5.5]undec-9-yl)acetate] the figure was over 100000 nM; with `N=C(N)c1ccc(C(=O)N2CCC3(CC2)C(=O)N(CC(=O)O)C(=O)N3Cc2ccccc2)cc1` [Example 13, Trifluoroacetate], over 100000 nM.
In the case of `N=C(N)c1ccc(C2=NOC3(CCN(CC(=O)O)CC3)C2)cc1` [Example 6], the half-maximal inhibitory concentration (IC50) in series [1] is 4000 nM.
The compound `O=C(O)CN1CCC2(CCN(CCc3ccncc3)CC2)CC1` [Example 20, (9-(2-(Pyridin-4-yl)ethyl)-3,9-diazaspiro[5.5]undec-3-yl)acetic Acid Bistrifluoroacetate] came in with an IC50 in series [1] of over 100000 nM.
Same read-out and setting: with `N=C(N)c1ccc(C2=NOC3(CCN(C(=O)CCCC(=O)O)CC3)C2)cc1` [Example 17] the figure was 84 nM; with `N=C(N)c1ccc(C(=O)N2CCC3(CC2)CN(CCCC(=O)O)C(=O)CO3)cc1` [Example 12, Hydrochloride], over 10000 nM; with `N=C(N)c1ccc(C2=NOC3(CCN(C(=O)CCC(=O)O)CC3)C2)cc1` [Example 10], 1000 nM.
As to `N=C(N)c1ccc(C2=NOC3(CCN(CCC(=O)O)CC3)C2)cc1` [Example 15, 4-(3-(4-(Aminoiminomethyl)phenyl)-1-oxa-2,8-diaza-spiro[4.5]dec-2-en-8-yl)propanoic Acid], in series [1], the IC50 was 110 nM.

The values above are taken from patent publication US6528534B2 (Millennium Pharmaceuticals, Inc., priority 1995, dated 2003).
